Results on 1 molecule are retold here after patent US20140031325A1, “COMBINATION THERAPY WITH LENALIDOMIDE AND A CDK INHIBITOR FOR TREATING MULTIPLE MYELOMA” (Celgene Corporation, priority 2010, published 2014).

SMILES strings stand for the structures.

One data set concerns multiple myeloma. Description: Combination therapy of lenalidomide and CDK4/CDK6 inhibitor (PD 0332991) in patients with multiple myeloma. It counts as in vivo. The procedure:
Lenalidomide and a CDK4/CDK6 inhibitor control tumor expansion and enhance tumor killing in the treatment of multiple myeloma. Patients with multiple myeloma are treated with lenalidomide (Revlimid®, 5 to 25 mg/day orally on days 1-21 in a 28 days cycle) and a CDK4/CDK6 inhibitor (PD 0332991, 25 to 150 mg/day orally on days 1-21 in a 28 days cycle). Maintenance treatment are continued until the disease progression.

Data set [1] concerns newly diagnosed multiple myeloma. Kind of data set: Combination therapy of lenalidomide and dexamethasone in patients with newly diagnosed multiple myeloma. It counts as in vivo. The text has this:
Most adverse events were manageable with dose modification. The combination therapy is an effective first-line therapy for the treatment of patients with newly diagnosed multiple myeloma.

Setting [2] is: lenalidomide in combination with dexamethasone, newly diagnosed multiple myeloma.

In the case of `Nc1cccc2c1CN(C1CCC(=O)NC1=O)C2=O` (stereo not drawn) [lenalidomide, 3-(4-amino-1-oxo-1,3-dihydro-isoindol-2-yl)-piperidine-2,6-dione], the “activity of the therapy in multiple myeloma patients” value with multiple myeloma (Revlimid 5 to 25 mg/day orally days 1-21 of 28-day cycle in combination with PD 0332991 25 to 150 mg/day orally days 1-21) is “highly active”. In addition, the tolerability entry with multiple myeloma (Revlimid 5 to 25 mg/day orally in combination with PD 0332991 25 to 150 mg/day orally, multiple myeloma patients) is listed as “well tolerated”. For the same molecule, in data set [1] (setting [2]), the “overall response rate and complete response” value was “high overall response rate and complete response”; the “progression-free survival at 1 year” value is “significantly increased progression-free survival at 1 year”; the tolerability result is on record as “well tolerated”. In addition, the patient response result in data set [1] (newly diagnosed multiple myeloma patients, lenalidomide 25 mg/day days 1-21 of 28-day cycle in combination with dexamethasone 40 mg/day (days 1-4, 9-12, 17-20 or days 1, 8, 15, 22)) was “most of patients responded”.
